Experiment [1] concerns the target T1, hCB2 (Homo sapiens, UniProt P34972).
T1 construct: purchased PerkinElmer ES111-M400UA; host or cells: CHO-K1 cells stably transfected
The experiment can be described thus: [35S]GTPγS binding assay in hCB2-CHO-K1 cell membranes. Type of experiment: biochemical. As for the experimental part:
Figure 2 Affinity and functional effects of novel MRI ligands on CB2 receptor in CHO cell membranes. (a) binding affinities (nM) and Emax (% and nM) of [^35S]-GTPγS binding to CHO membranes (PerkinElmer, Cat. No ES111-M400UA) expressing hCB2. (b) [^35S]-GTPγS binding to membranes as a factor of ligand concentration. Binding of [^35S]-GTPγS was determined as described in “Methods”. Non-specific binding was defined as 0% activity. The assay of GTPγS non-specific binding contains non-radioactive GTPγS.
[^35S] GTPγS binding was assayed as described earlier[65] with slight modifications. Briefly, hCB2-CHO-K1 cell membranes (4 µg) were incubated with 0.05 nM [^35S] GTPγS, and the indicated concentrations of ligands in TEM buffer (50 mM Tris–HCl, 0.2 mM EGTA, and 9 mM MgCl2, pH 7.4) containing 100 µM GDP, 150 mM NaCl, and 0.1% (w/v) bovine serum albumin in a total volume of 1 ml for 60 min at 30 °C.

For experiment [2], the target named is T1, hCB2. Description: Radioligand ([3H]CP-55,940) displacement binding in hCB2-CHO-K1 cell membranes. How it is done:
The assay was performed as described previously. […] Plasma membranes were from cultured CHO-K1 cells stably transfected with human CB2R (Perkin Elmer). Two microgram plasma membrane protein was used in a 1 mL reaction mixture. Ki values were derived by computerized curve fitting and using the Cheng-Prusoff equation to account for the affinity of the radioligand, using the GraphPad Prism 8 program (GraphPad Prism Software Inc.).

The next experiment has as its target cannabinoid receptor CB2 (Homo sapiens, UniProt P34972). The experiment can be described thus: GEF G protein activation assay on purified CB2 reconstituted in liposomes. It is filed as biochemical. The arrangement: E. coli construct) (cleaved yes); twin-Streptag (N); His10 (C); made in house; host or cells: E. coli BL21 (DE3) and Expi293F GNTI-. An excerpt: To assess the possible role of post-translational modifications of CB2 on its activation by the MRI ligands, the recombinant CB2 receptor was isolated from two different expression cell lines, E. coli BL21 (DE3)[41] and Expi293F GNTI^-[42]. The protein was purified and reconstituted into lipid bilayers containing 1-palmitoyl-2-oleoyl-glycero-3-phosphocholine (POPC) and, 1-palmitoyl-2-oleoyl-sn-glycero-3-phospho-(1′-rac-glycerol) (POPG) at a molar ratio of 3/1, either supplemented or not supplemented with cholesterol, as described in “Methods”[10],[13]. We reported previously that the presence of phospholipids with a negatively charged headgroup stabilizes CB2 protein in lipid bilayers. Therefore, purified CB2 was reconstituted into POPC/POPG (3/1, mol/mol) liposomes containing 0, 20 and 40 mol% cholesterol (reported as total content of lipids) as described in “Methods”. In one case, the protein purified from E. coli cells was reconstituted into lipids extracted from brain tissue (Avanti Polar Lipids). The ratio of protein-to-lipid in the resulting samples was in the range of 1:850 to1:1100 (mol/mol). The levels of protein, and the density of ligand binding sites for receptor preparations reconstituted in liposomes with different content of cholesterol varied only slightly (Supporting Fig. 5a,b).
Figure 7 Activation of G protein on CB2 receptor reconstituted in liposomes. Liposome composition: 75% POPC, 25% POPG and cholesterol content relative to total phospholipids as indicated, or total lipids extracted from bovine brain, as indicated. Proteins were reconstituted at a protein-to-lipid ratio in the range 1:850 to 1:1100 mol/mol. (a–d) CB2 purified from E. coli cells. (e,f) CB2 purified from Expi293F GNTI^- cells. Average values of four independent measurements are plotted (n = 4). Dotted lines represent the rates of activation of G protein in the absence of a ligand.
Reconstitution of the purified CB2 into liposomes was performed as described earlier. Briefly, 200 μg of the purified protein was mixed with 2 mg of lipid mixture (POPC:POPG, 3:1, mol/mol without or with addition or 20 mol% or 40 mol% of cholesterol) solubilized in 1% CHAPS at a concentration of 5 mg lipid/mL, and incubated on ice for 30 min. The detergents were then removed on 4 mL Detergent Removal spin column (Pierce), according to manufacturer’s instructions. The combined filtrate containing proteoliposomes was collected, and aliquots frozen in liquid nitrogen. Frozen liposomes were stored at − 80 °C until further use. Content of protein in proteoliposomes was determined by BioRad DC assay.
The subunits of G protein were expressed and purified as described previously. The nucleotide exchange assay was performed as previously described.

cannabinoid receptor CB2, sequence (P34972 whole entry): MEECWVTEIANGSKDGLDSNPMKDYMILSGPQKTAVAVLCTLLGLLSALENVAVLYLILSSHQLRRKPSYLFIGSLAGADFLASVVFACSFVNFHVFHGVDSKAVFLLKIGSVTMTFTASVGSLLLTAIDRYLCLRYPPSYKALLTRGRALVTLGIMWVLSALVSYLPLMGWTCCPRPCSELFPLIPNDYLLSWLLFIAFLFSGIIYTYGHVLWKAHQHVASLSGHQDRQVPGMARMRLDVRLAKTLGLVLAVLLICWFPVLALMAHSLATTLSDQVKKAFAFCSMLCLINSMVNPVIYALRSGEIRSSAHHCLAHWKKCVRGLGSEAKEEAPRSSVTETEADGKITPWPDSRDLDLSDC
T1 sequence (P34972 whole entry): as above

The term Emax denotes the size of the effect at its maximum, as opposed to the concentration needed. Usually Ki stands for the equilibrium dissociation constant of an inhibitor or competing ligand from its target. On to `CC(=O)OCCn1c(=NC(=O)C2C(C)(C)C2(C)C)sc2cc(Cl)ccc21` [MRI-2646, 2-(6-Chloro-2-((2,2,3,3-tetramethylcyclopropane-1-carbonyl)imino)benzo[d]thiazol-3(2H)-yl)ethyl acetate], for which the Emax on hCB2 [1] (CHO membranes expressing hCB2 (PerkinElmer ES111-M400UA), read-out: GTPγS binding Emax) was -2 ± 4%. Moreover, on hCB2 [1] (hCB2-expressing CHO cell membranes (PerkinElmer)), the “Functional effect on G-protein signaling (pharmacological category)” value is reported as “no effect on basal signaling”. Also, the Ki at hCB2 [2] was found to be 0.079 ± 0.011 nM. The “Pharmacological category in GEF assay” value at cannabinoid receptor CB2 (CB2 from E. coli, POPC/POPG liposomes devoid of cholesterol) was “partial agonist”; on cannabinoid receptor CB2 (CB2 from E. coli, liposomes with 20% or 40% cholesterol or brain lipid extract), “partial inverse agonist”; at cannabinoid receptor CB2 (CB2 from Expi293F GNTI- (HEK) cells, liposomes with 40% of cholesterol), “partial inverse agonist”; on cannabinoid receptor CB2 (CB2 from Expi293F GNTI- cells, liposomes without cholesterol) it was “partial agonist”.

These data come from paper PMC7881127, “Cholesterol as a modulator of cannabinoid receptor CB2 signaling” (Scientific Reports, 2021).
